“Also recorded” adds a separate entry of the source.
System: 3×Tg-AD mice
Assay: Sorting Activity Test (SAT), bedding sorting score, tricyclic antidepressants
Assay type: in vivo, mouse
Details: for mean sorting score over the course of the study: 6 cages x 7 weeks; for mean sorting score over the course of the study / mean sorting score: score 0-4; for mean sorting score: day 7 after bedding change, 6 cages, dosed once daily Mon-Fri
Excerpt: The 3×Tg-AD mice developed by LaFerla et al., at the University of California at Irvine (Neuron 2003b) were used in the study. These mice harbor mutations in three different genes: the β-amyloid precursor protein (APPSweKM→NL), presenilin-1 (PS1M146V) and tau (P301L). […] Intracellular A-beta peptide immunoreactivity has been reported to appear by as early as three months of age and extracellular A-beta deposits in evidence between six and 12 months of age (Oddo et al., 2003a, 2003b). In the cohort of mice used in the present studies, these hallmarks of AD were not observed until 19 months of age by immunohistochemical methods.
Triple transgenic (3×Tg-AD) mice and corresponding non-transgenic control mice were weaned and group housed four (4) mice per cage in large static microisolator caging composed of a tinted polycarbonate cage, stainless steel lid, and polycarbonate filtered top at Ace Animals, Inc. Mice were fed 5% Fat Purina Autoclavable Breeder Diet (Item #RHI5R24CGP) and provided reverse osmosis chlorinated water ad libitum within a barrier environment in an environmentally controlled facility (22° C., 40-60% relative humidity) with a 12:12-hour light: dark cycle. Health status reports certify that all animals were free of known viral, bacterial, and parasitic pathogens.
The unique factor within this colony was the use of a combination corncob and papered bedding (AlphaCobb® cat #ALPHA4B, Animal Specialties and Provisions, Quakertown, Pa.). The mice were 8 weeks of age at the start of the study.
Mice were housed 2 per cage, 6 cages per group: Non-transgenic control, untreated, 3×Tg-AD, untreated, 3×Tg-AD, Desipramine, 30 mg/kg, and 3×Tg-AD, Imipramine. All mice were approximately two months of age at the start of the study. Mice were dosed once daily, Monday through Friday with test article. Cages were photographed weekly on Day 7, and cage bedding was changed once per week after photographs were taken.
In order to quantify the sorting behavior of the mice in this study, a scoring system was devised. Before the start of the initial study the mice were observed. It was evident that the sorting behavior was not an “all or nothing” phenomenon, but rather existed in degrees. After observing the cages for some time, scoring criteria were established.
In these cages, the two types of bedding were equally mixed throughout the cage. There was no area where one bedding type was more concentrated.
In these cages, a small area of white bedding was seen, usually piled in a corner. The two types of bedding were equally mixed throughout the rest of the cage.
A score of 2 was given to cages when the white area of bedding was more pronounced, yet the bedding throughout the rest of the cage was still mixed.
A score of 3 was given to cages when the white area was very clearly defined, and very little white bedding was left mixed with the Alpha Cobb.
A score of 4 was given to cages when the two types of bedding were almost completely separated from each other.
The degree of sorting at the end of each 7 day period (before the cages were changed) was scored using this system.
Using the scoring system devised and making daily observations of the cages, the behavior patterns of the non-transgenic control mice could be clearly distinguished from the 3×Tg-AD mice within a matter of a couple days, but was most prominent after Day 3. At Day 7 before each bedding change, the bedding of each cage was digitally photographed and scored. Table 1 provides the mean score and standard deviation (SD) for each group of mice for each week observed.
Data was analyzed using GraphPad Prism software with ANOVA one-way analysis of variance followed by Dunnett's multiple comparison test. All groups (6 cages×7 weeks) were compared to untreated 3×TgAD group. Significance was defined as p<0.05.

Compound	mean sorting score over the course of the study	sorting behavior, in words (treated 3×Tg-AD mice compared to untreated Tg mice)	mean sorting score (week 1)	mean sorting score (week 2)	mean sorting score (week 3)	mean sorting score (week 4)	mean sorting score (week 5)	mean sorting score (week 6)	mean sorting score (week 7)
CNCCCN1c2ccccc2CCc2ccccc21 [DESIPRAMINE, Desipramine]	0.67	regained some of the behavior; also recorded: greater effect than imipramine	0.00	0.50	1.17	0.83	0.83	0.50	0.83
CN(C)CCCN1c2ccccc2CCc2ccccc21 [IMIPRAMINE, Imipramine]	0.31		0.00	0.67	0.17	0.33	0.33	0.33	0.33

Reference: patent US8933295B2, “Identifying agents to treat alzheimer's disease-related decreased sorting behavior by administration to a triple transgenic mouse expressing mutant forms of APP, presenilin or tau” (Janssen Biotech, Inc., priority 2008, dated 2015)
